Results published in patent publication US11136299B2, “Benzodiazepine derivatives for use in the treatment of Chlamydiales infections” (priority 2015, dated 2021).

Key:
Type in all cases: cell-based
[1] = system: Chlamydia trachomatis (Ctr) strain L2/434/Bu; test: Ctr infectivity assay, primary and progeny infection, HSP60 immunoblot; settings: Retro-1 50-75 μM in the primary infection; HeLa229 cells; FIG. 6
From the text: (§1) Chlamydia trachomatis (Ctr). Laboratory-adapted strain L2/434/Bu (ATCC VR902B) was used in assays. Full biological and genetic information is available for this strain including complete genome sequence and defined proteome. This strain has a relatively low particle to infectivity ratio, performs efficient cell infection and has a higher viability than standard genital tract isolates with faster developmental cycle. Culture conditions have been described in (Wang Y., Kahane S., Cutcliffe L. T., Skilton R. J., Lambden P. R., Clarke I. N. Development of a transformation system for Chlamydia trachomatis: Restoration of glycogen biosynthesis by acquisition of a plasmid shuttle vector. PLoS Pathogen, 2011, 7(9): e1002258. doi: 10.1371/journal.ppat.1002258).
Compound application during Ctr infection. HeLa229 cells were pretreated with Retro-1 in concentrations of 25, 50 and 75 μM for 30 min until Ctr (MOI1) were added to the cells. Retro-1 was present during infection.
Cells with primary infection were lysed 24 h post infection (hpi). To obtain progeny infection compound treated cells were lysed 48 hpi and lysate was used to infect fresh HeLa229 cells. Progeny infection was lysed 24 hpi and analyzed together with primary infection samples by immunoblot. Chlamydial growth was detected with antibodies against chlamydial HSP60 protein and Actin was used as loading control (FIG. 6).

[2] = system: Simkania negevensis (Sn) strain Z; test: Sn infectivity assays (primary and progeny infection) in HeLa229 cells; settings: for effect on primary and progeny infection for Simkania / concentration at which maximal inhibition of Sn replication was observed: HeLa cells; for effect on primary and progeny infection for Simkania: GroEL western, inclusion size, inclusion number, microscopy; for concentration at which maximal inhibition of Sn replication was observed: tested at 25 and 75 μM, FIGS. 1-4; for effect on Sn inclusions (transmission electron microscopy): infected HeLa cells versus DMSO-treated control, FIG. 5
Protocol: Simkania negevensis (Sn) strain Z (ATCC VR-1471) was prepared as described previously (Mehlitz A, Karunakaran K, Herweg J A, Krohne G, van de Linde S, Rieck E, Sauer M, Rudel T. The chlamydial organism Sn forms ER vacuole contact sites and inhibits ER-stress. Cell Microbiol 2014; 16(8):1224-1243).
Briefly, HeLa229 cells were grown to 50-70% confluence, were inoculated with Sn in RPMI1640 with 5% FBS, for 6 h at 35° C. in a humidified incubator at 5% CO2. Medium was replaced by infection medium (RPMI1640, Glutamax, 5% FBS, w/o HEPES) and growth was allowed for 3 days. Cells were mechanically detached and bacteria were released using ˜2-5 mm glass beads (Carl Roth). Low speed supernatant (600×g, 4° C. and 5 min) was subjected to high-speed centrifugation (20,000×g, 4° C. and 30 min) to pellet bacteria. Bacteria were washed twice with 5 ml SPG (250 mM sucrose, 50 mM sodium phosphate, 5 mM glutamate, pH 7.4), aliquoted and stored at −80° C. in SPG.
40,000 Hela cells were seeded in 12-well cluster plates, inhibitor-treated and infected as indicated in the respective experiment.
For infectivity assays cells were either fixed and stained at indicated time points (FIG. 2, 4; inclusion formation/primary infection) or bacteria were released via one freeze thaw cycle (−70° C./37° C.) followed by mechanical release through pipetting and transfer to fresh HeLa229 cells (1:25-1:50, progeny/infectivity). Cells were centrifuged for 1 h at 35° C. and medium exchanged to infection medium. Progeny was fixed at day 3 post infection and processed for staining (FIG. 3) or harvested for immunoblotting (FIG. 1). Infectivity assays were imaged on an automated fluorescence microscope Leica DMIR (FIG. 4). Numbers and average sizes of the SCV as well as host cell numbers were determined via GroEL and DAPI staining and images were analysed and quantified using FIJI (ImageJ) and Excel (Microsoft).
In progeny assay, bacteria are first grown in Hela299 cells treated with inhibitors, Retro-1 and VP-184 (25 and 75 μM), and the infectious particles from this primary infection are applied to fresh cells in the absence of inhibitor to measure the bacterial load (GroEL immunoblot) and inclusion formation (immunofluorescence microscopy).

[3] = system: Chlamydia trachomatis (Ctr) strain L2/434/Bu; test: Ctr infectivity assay, progeny infection, cellular protection by GFP microscopy quantification; settings: HeLa229 cells, Ctr MOI1, progeny infection fixed 48 hpi, versus solvent-treated cells; for Cellular protection at 75 μM (%): 75 μM compound; for inhibition at 25 µM: Chlamydia trachomatis, HeLa 229, 48 h
From the text: as §1, with “perform” for “performs”
Compound application during Chlamydia trachomatis infection. HeLa229 cells were pretreated with Retro-1 and Retro-1 derivatives in concentrations of 25 μM and 75 μM for 1 hour until Chlamydia trachomatis (MOI1) were added to the cells. Compounds were present during infection. To obtain progeny infection, compound treated cells were lysed 24 h post infection (hpi) and lysate was used to infect fresh HeLa 229 cells. Infected cells of progeny infection were fixed with 4% Paraformaldehyde 48 hpi. Cells were stained for DAPI and Chlamydia trachomatis were detected by GFP-signal. Images are representative of n=2 independent experiments. Quantification of infected cells by Chlamydia trachomatis was realized from microscopy images with Image J software (FIG. 7) and cellular protection by compounds at 25 μM and 75 μM was then determined (Table 1) by comparison with solvent-treated cells (control) with the following equation: […]

SMILES	Cellular protection at 75 μM (%) [3] [%]	inhibition at 25 µM ([3]; 25 μM compound) [%]	further results
CCC(=O)N1CC(=O)Nc2ccc(Br)cc2C1c1ccccc1 (stereo not drawn) [Retro-1, 7-bromo-5-phenyl-4-propionyl-1,3,4,5-tetrahydro-2H-benzo[e][1,4]diazepin-2-one]	2.4	26.5	infectivity in the Ctr progeny (HSP60 immunoblot) [1]: significant reduced infectivity in the progeny; effect on primary and progeny infection for Simkania [2]: inhibitor effect on primary and progeny infection; concentration at which maximal inhibition of Sn replication was observed [2]: 75 µM; effect on Sn inclusions (transmission electron microscopy) [2]: inclusions were smaller
CC1CCC(N2CC(=O)Nc3ccc(Br)cc3C2c2ccccc2)C1 (stereo not drawn) [HA280, 7-bromo-4-(3-methylcyclopentyl)-5-phenyl-1,3,4,5-tetrahydro-2H-benzo[e][1,4]diazepin-2-one]	–	100	Cellular protection at 25 μM (%) ([3]; 25 μM compound): full protection
O=C1CN=C(c2ccccc2)c2cc(Br)cc(Br)c2N1 [HA061, 7,9-dibromo-5-phenyl-1,3-dihydro-2H-benzo[e][1,4]diazepin-2-one]	–	57.8	–
O=C1CNC(c2ccccc2)c2cc(Br)ccc2N1 (stereo not drawn) [VP174, 7-bromo-5-phenyl-1,3,4,5-tetrahydro-2H-benzo[e][1,4]diazepin-2-one]	52.8	27.6	–
CN1C(=O)CN=C(c2ccccc2Cl)c2cc(Cl)ccc21 [HA200, 7-chloro-5-(2-chlorophenyl)-1-methyl-1,3-dihydro-2H-benzo[e][1,4]diazepin-2-one]	–	47	–
CCCN1CC(=O)Nc2ccc(Br)cc2C1c1ccccc1 (stereo not drawn) [VP-184, 7-bromo-5-phenyl-4-propyl-1,3,4,5-tetrahydro-2H-benzo[e][1,4]diazepin-2-one]	–	–	effect on primary and progeny infection for Simkania [2]: inhibitor effect on primary and progeny infection; concentration at which maximal inhibition of Sn replication was observed [2]: 25 µM; effect on Sn inclusions (transmission electron microscopy) [2]: strongly reduced Sn inclusion formation, size, numbers and Sn replication
O=C1CN(C2CCCC2)C(c2ccccc2)c2cc(Br)ccc2N1 (stereo not drawn) [HA229, 7-bromo-4-cyclopentyl-5-phenyl-1,3,4,5-tetrahydro-2H-benzo[e][1,4]diazepin-2-one]	–	20.2	–
O=C1CN=C(c2ccccc2Cl)c2cc(Cl)ccc2N1 [HA197, 7-chloro-5-(2-chlorophenyl)-1,3-dihydro-2H-benzo[e][1,4]diazepin-2-one]	84.3	90.6	–
O=C1CN=C(c2ccccc2)c2cc(Br)ccc2N1 [VP173, 7-bromo-5-phenyl-1,3-dihydro-2H-benzo[e][1,4]diazepin-2-one]	100	61.5	Cellular protection at 75 μM (%) ([3]; listed as VP 173): full protection
